Source: publication PMC4912613, “A broad analysis of resistance development in the malaria parasite” (Nature Communications, 2016)
Where two headings read alike, the source gives them in different places.

Assays:
[1] = test system: CYTbQi (cytb G33A, parent Dd2); assay: Cross-resistance EC50 assay, CYTbQi; type: cell-based; conditions: Plasmodium falciparum, SYBR green 72 hour assay, synchronized parasites, 384-well format
From the text: (§1) To evaluate potential overlapping activity against known antimalarial drug targets, we performed dose-response studies with each compound against our assembled set of drug-resistant lines and their corresponding parents, in an asexual blood stage proliferation assay (Table 1). Comparisons were made to the drug-sensitive strain 3D7 when a parent was unavailable (TM90C2A, W2 and Dd2). As laboratories conducted EC50 assays with different strains and protocols, all comparisons were made between assays from the same laboratory and under the same assay conditions. Compounds displaying >5-fold EC50 shifts relative to the parent or sensitive strain were flagged as having potentially non-novel targets. Average fold shifts per strain ranged from 0.82 to 2.34, with a median of 1.23 indicating there was not common resistance to any one resistant clone. No resistance patterns were observed when classifying the compounds based on chemical structure, but this was not surprising given the diversity of compounds chosen. On the other hand, given that these confirmed compounds were derived from larger unconfirmed hit lists to which some filtration criteria may have been applied (for example, elimination of obvious dihydrofolate reductase inhibitors[32]), some[10][11][12][13] pre-existing bias may exist in the set. […]
(§2) Alternatively, a SYBR Green-based proliferation approach was used for the 72-h assay, as previously described. Briefly, a culture of either synchronized or asynchronous parasitized RBCs (0.3% parasitemia and 4% haematocrit) in screening medium (identical to supplemented medium above except no serum was added) was exposed to serial drug dilutions. Plates were incubated at 37 °C and gassed with 93% N2, 4% CO2 and 3% O2 for 72 h. Following incubation, 10 × SYBR Green I (Invitrogen; supplied in 10,000 × concentration) in lysis buffer ([…], 5 mM EDTA, 0.16% Saponin wt per vol and 1.6% Triton X vol per vol) was added to the wells and the plates were incubated overnight at room temperature before plate reading. EC50 assays were repeated three times, taking the average EC50 value from each assay set, and removing any outliers using a single iteration of Grubbs' test, eliminating values with z-scores above the critical z-value (α=0.05). The raw EC50 values for synchronized parasites assayed in a 384-well format are listed in Supplementary Data 4. The raw EC50 values for asynchronous parasites assayed in a 96 or 1536-well format are listed in Supplementary Data 5.
(§3) EC50 values for each strain were compared with those of the corresponding parent strain to determine fold-shift changes and identify resistance. To minimize the cause variance between assays, all comparisons were conducted between strains assayed under identical conditions. A one-way ANOVA followed by a Dunnet's post-test was conducted in GraphPad Prism to identify significant changes between the parent and resistant strain.

[2] = test system: Stage 5 gametocytes from P. falciparum NF54; assay: Late-stage (stage V) gametocyte survival assay, MitoTracker; type: cell-based, Plasmodium falciparum; conditions: for EC50: Plasmodium falciparum, P. falciparum NF54, 72 h, read-out: Stage 5 Gametocyte EC50; for EC50 fold shift compared to asexual stage: Stage 5 Gametocyte EC50: gametocyte EC50 / 3D7 EC50
Procedure: The second assay was a late-stage (stage V) gametocyte survival assay, which predicts transmission-blocking activity. […] Positive and negative control compounds included puromycin (0.61±0.11 μM) and atovaquone (> 12.50 μM), respectively.
To test sexual-stage activity, compounds were tested against late-stage gametocytes using a MitoTracker fluorescent-based assay. Specifically, synchronized stage V gametocytes were incubated with compound for 72 h. MitoTracker Red CMXRos (Life Technologies) was added to each well (final concentration: 500 nM) together with saponin to lyse the RBCs. Each plate was then imaged with an Operetta High Content Imaging System (Perkin Elmer) for fluorescence (590–640 nm). Varying levels of compound concentration were used (1.25 μM or 12.5 μM) due to the stock concentration supplied.
The gametocytocidal activity was measured using high-content image analysis software (Harmony, Perkin Elmer). The readout was based on number of metabolically active gametocytes per well.

[3] = test system: P. berghei exoerythrocytic forms; assay: Liver-stage P. berghei hepatocyte invasion and development assay (luminescence, HepG2); type: cell-based, Plasmodium berghei; conditions: for EC50 fold shift compared to asexual stage: Liver Stage EC50: liver stage EC50 / 3D7 EC50
From the text: As drugs that eliminate multiple stages of the parasite lifecycle will be critical components in global efforts to eliminate malaria, we were interested in knowing whether the compounds in our study had additional activities against either the liver and/or transmission stages of the parasite lifecycle. To determine this, we first evaluated the compounds in additional phenotypic assays. The first assay was a P. berghei hepatocyte invasion and development assay, which predicts causal prophylactic activity. Hepatocyte toxicity was additionally tested to identify false-positive activity in the liver stage due to host-cell toxicity. Assays were executed in duplicate using a 12-point EC50 curve at starting concentrations of 5 μM or 50 μM (Supplementary Table 1).
Liver-stage activity was determined by pretreating hepatic human cells (HepG2) for 2 h with compound in 1,536-well plates infected with freshly dissected P. berghei sporozoites. After 48 h of incubation, the viability of P. berghei exoerythrocytic forms was measured by luminescence reaction light output using BrightGlo (Promega). Varying levels of compound concentration were used (5 μM or 50 μM) due to the stock concentration supplied.

[4] = test system: P. falciparum; assay: Rate of killing (parasite viability) assay; type: cell-based, Plasmodium falciparum; conditions: profile compared with chloroquine, pyrimethamine, atovaquone; 48 h treatment
Procedure: To identify whether selection success could be predicted by compound speed of action, and to gain a greater insight into the potential mechanisms of action, assays were performed to test the killing rate (Supplementary Data 1)[33]. To quantify the killing rate, viability time-course profiles for each compound were compared with antimalarials known to have fast (chloroquine), moderate (pyrimethamine) or slow (atovaquone) rate of action. These rates were then compared with other compound characteristics, including cross-resistance profile, selection success, potency and structural characteristics to identify any possible trends. […] One compound's rate of killing, MMV666080, was unidentifiable due to compound availability. No correlation was seen between compound structure and speed of action. Additionally, there was no correlation found between killing rate and compound potency against 3D7, nor between potency and selection success (Supplementary Fig. 2).
Rate of killing was determined for each compound following a previously described methodology, which uses the invasion of fresh erythrocytes as surrogate of parasite viability. Briefly, parasites were treated with compounds for 48 h. Compound was washed out and fresh-labelled erythrocytes added to the treated parasites. Double stained erythrocytes (RBC label plus parasite DNA label) were quantified and per cent of survival determined.

[5] = test system: DHODH (E182D, parent 3D7); assay: Cross-resistance EC50 assay, DHODH; type: cell-based; conditions: Plasmodium falciparum, SYBR green 72 hour assay, synchronized parasites, 384-well format
From the text: as §1, §2, §3

[6] = test system: ProRS (prolyl t-RNA synthetase L482H, parent Dd2); assay: Cross-resistance EC50 assay, ProRS; type: cell-based; conditions: Plasmodium falciparum, SYBR green 72 hour assay, synchronized parasites, 384-well format
From the text: as §1, §2, §3

[7] = Plasmodium berghei, HepG2, 48 h, P. berghei sporozoites, HepG2, 48 h, read-out: Liver Stage EC50

SMILES	EC50 ([1]; strain CYTbQi (Dd2 parent)) [nM]	EC50 [2] [nM]	EC50 fold shift compared to asexual stage: Stage 5 Gametocyte EC50 [2]	EC50 [3, 7] [nM]	EC50 fold shift compared to asexual stage: Liver Stage EC50 [3]	Killing Rate [4]	EC50 ([5]; strain DHODH (3D7 parent)) [nM]	EC50 ([6]; strain ProRS (Dd2 parent)) [nM]	EC50 ([3]; Plasmodium berghei, HepG2, text values, read-out: Liver stage EC50 (PfLuc EC50)) [nM]	EC50 ([1]; DD2, CYTbQi strain) [nM]	EC50 ([5]; 3D7, DHODH strain) [nM]	EC50 ([6]; DD2, ProRS strain) [nM]	EC50 ([3]; P. berghei sporozoites, HepG2, 48 h, read-out: Liver Stage EC50) [nM]
COc1cc(-c2nc(-c3ccccc3)c(-c3ccccc3)[nH]2)cc(OC)c1O [MMV020750]	927	> 1250	> 3.6	> 5000	23.86	PYR (moderate)	509	919	–	–	–	–	–
CN(C)S(=O)(=O)c1cc(-c2ccc3nccc(-c4cccc(S(N)(=O)=O)c4)c3c2)cnc1N [MMV024038]	164	317	1.39	10.8	0.05	PYR/CQ (moderate)	216	143	10	–	–	–	–
COC(=O)c1ccc(C2C3=C(O)CC(c4ccc(F)cc4)CC3=Nc3ccccc3N2C(=O)c2ccccc2)cc1 (stereo not drawn) [MMV011438]	235	971	2.25	621	1.44	ATQ (slow)	556	220	–	–	–	–	–
Cc1c(C)n(Cc2ccc(F)cc2)c2ccc(C(=O)NCc3ccco3)cc12 [MMV008149]	87	> 1250	1.62	882	1.15	ATQ (slow)	401	67	–	–	–	–	–
Cc1ccc(S(=O)(=O)n2cc(-c3ccnc(N)c3)c3cc(Br)cnc32)cc1 [MMV024114]	1380	> 12500	> 47	5940	22.40	PYR/CQ (moderate)	395	669	–	–	–	–	–
COc1ccc(NC(=O)N2CCCCN3[C@H](CN)[C@H](c4ccc(C#Cc5ccccc5)cc4)[C@@H]3C2)cc1 [BRD1095]	–	259	6.48	82.6	2.07	PYR/CQ (moderate)	–	–	–	18	23	17	–
CCN(CC)S(=O)(=O)c1ccc(-c2csc(Nc3ccc(C)c(C)c3)n2)cc1 [MMV009108]	416	921	0.99	4790	5.15	ATQ (slow)	973	373	–	–	–	–	–
COCCNCC(O)Cn1c2ccc(Cl)cc2c2cc(Cl)ccc21 (stereo not drawn) [MMV019017]	549	> 1250	> 2.6	> 5000	> 10	CQ (fast)	1040	340	–	–	–	–	–
Cc1cc(Nc2ccc(OCc3ccccc3)cc2)nc2cc(O)ccc12 [MMV007181]	144	805	2.33	4790	13.83	PYR/CQ (moderate)	206	105	–	–	–	–	–
CNCc1ccc2nc(-c3coc(Cc4cc(Cl)ccc4OCC(C)C)n3)[nH]c2c1.Cl.Cl [MMV026596]	431	6350	18.35	6470	18.71	PYR (moderate)	392	349	–	–	–	–	–
COc1ccccc1CNC(=O)CCn1c(=O)[nH]c2ccsc2c1=O [MMV019066]	74	> 1250	> 0.7	318	0.19	ATQ (slow)	53	42	–	–	–	–	310
Cc1ccc(Cn2c(N3CCC(C(=O)NCc4cccs4)CC3)nc3ccccc32)cc1 [MMV007564]	574	2210	3.81	1510	2.60	PYR/CQ (moderate)	631	416	–	–	–	–	–
COc1cc(-c2nc(-c3ccccc3)c(-c3ccccc3)[nH]2)ccc1OCCN(C)C [MMV027496]	317	> 12500	> 112	3170	28.59	PYR/CQ (moderate)	128	311	–	–	–	–	–
O=C(Nc1ccccc1O)c1ccc(Oc2cccc(C(=O)Nc3ccccc3O)c2)cc1 [MMV665888]	601	2980	2.46	648	0.54	PYR (moderate)	1020	495	–	–	–	–	–
CCCOCc1cc(CN2CCN(c3cccc(Cl)c3)CC2)c(O)c2ncccc12 [MMV000787]	520	5670	–	600	–	CQ (fast)	467	484	–	–	–	–	–
